Data published in patent publication US20260125375A1 (Pfizer Inc., priority 2022, published 2026).
Read-outs that look alike come from different tables or passages of the source.

What was measured:
C-CBL (residues 46-435) = molecular target: T1, C-CBL (residues 46-435) (Homo sapiens, UniProt P22681); assay: Ligand Displacement Assay (LDA), HTRF competitive binding against BODIPY-labeled fluorescent tracer, C-CBL; settings: geometric mean of the number of tests, read-out: C-CBL Ki (nM) GMean
T1 construct: Purified CBL-B (residues 36-427) and C-CBL (residues 46-435) proteins from baculovirus-infected insect cells; made in house; host or cells: baculovirus-infected insect cells
T1 sequence (P22681 46-435): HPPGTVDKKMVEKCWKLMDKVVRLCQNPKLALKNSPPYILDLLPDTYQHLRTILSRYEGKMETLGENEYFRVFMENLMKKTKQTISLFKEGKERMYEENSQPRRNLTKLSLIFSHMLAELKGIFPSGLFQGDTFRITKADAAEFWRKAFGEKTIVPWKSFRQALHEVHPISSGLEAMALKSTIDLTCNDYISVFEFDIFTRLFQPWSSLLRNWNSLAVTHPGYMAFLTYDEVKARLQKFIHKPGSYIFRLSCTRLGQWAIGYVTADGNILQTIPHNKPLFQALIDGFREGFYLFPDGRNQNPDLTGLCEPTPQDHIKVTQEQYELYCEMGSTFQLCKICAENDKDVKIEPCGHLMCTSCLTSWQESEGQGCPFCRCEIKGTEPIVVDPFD
Summary of the method: (§1)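 First, the insect-cell-expressed protein is biotinylated at its amino-terminal AviTag with BirA and coupled to SA-Tb. Next, the tracer KD is determined for each protein. Finally, compounds are titrated three-fold in duplicate […], at 2% DMSO, and Ki is reported as a geometric mean.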

CBL-B (residues 36-427) = molecular target: T2, CBL-B (residues 36-427) (Homo sapiens, UniProt Q13191); assay: Ligand Displacement Assay (LDA), HTRF competitive binding against BODIPY-labeled fluorescent tracer, CBL-B; settings: geometric mean of the number of tests, read-out: CBL-B Ki (nM) GMean
T2 construct: Purified CBL-B (residues 36-427) and C-CBL (residues 46-435) proteins from baculovirus-infected insect cells; made in house; host or cells: baculovirus-infected insect cells
Summary of the method: as §1

C-CBL = molecular target: T3, C-CBL (Homo sapiens, UniProt P22681); assay: Jurkat HiBit-IL2 assay (CBL-B KO), reporter cell line expressing C-CBL only; type: cell-based; settings: geometric mean, read-out: CBL-B KO EC50 (nM) GMean
T3 construct: endogenous in cells; host or cells: Jurkat HiBit-IL2 reporter cells, CBL-B knocked out by CRISPR
Summary of the method: (§2)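 CRISPR knockout Jurkat HiBit-IL2 reporter cells (20,000/well) were preincubated 1 h with compounds (0.1% DMSO), then stimulated 4 h at 37 °C with anti-CD3 (1 μg/ml) and anti-CD28 (2 μg/ml) final. IL-2 was read by HiBiT lytic luminescence, normalized as fold over antibody-only baseline; EC50 reported as geometric mean.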

CBL-B = molecular target: T4, CBL-B (Homo sapiens, UniProt Q13191); assay: Jurkat HiBit-IL2 assay (c-CBL KO), reporter cell line expressing CBL-B only; type: cell-based; settings: geometric mean, read-out: C-CBL KO EC50 (nM) GMean
T4 construct: endogenous in cells; host or cells: Jurkat HiBit-IL2 reporter cells, C-CBL knocked out by CRISPR
Summary of the method: as §2

[1] = CBL-B KO (C-CBL only), anti-CD3/anti-CD28 stimulation 4 hours, Table 16a
[2] = c-CBL KO (CBL-B only), anti-CD3/anti-CD28 stimulation 4 hours, Table 16a
[3] = CBL-B KO (expressing C-CBL only), Table 16b (further repetition)
[4] = C-CBL KO (expressing CBL-B only), Table 16b (further repetition)

Structure (SMILES)	Ki (C-CBL (residues 46-435)) [nM]	Ki (CBL-B (residues 36-427)) [nM]	EC50 (C-CBL; [1]) [nM]	EC50 (CBL-B; [2]) [nM]	EC50 (C-CBL; [3]) [nM]	EC50 (CBL-B; [4]) [nM]
C[C@H]1CCCN(Cc2nc(C(F)(F)F)cc3c(-c4cccc(C5(Cc6nncn6C)COC5)c4)n[nH]c23)C1 [Example C30, 7-{[(3S)-3-methylpiperidin-1-yl]methyl}-3-(3-{3-[(4-methyl-4H-1,2,4-triazol-3-yl)methyl]oxetan-3-yl}phenyl)-5-(trifluoromethyl)-1H-pyrazolo[3,4-c]pyridine]	23.4	3.6	232	32		
C[C@@H](N[C@@H]1CCOC1)c1nc(C(F)(F)F)cc2c(-c3cccc([C@H](c4nncn4C)C4CCC4)c3)n[nH]c12 (single isomer, unassigned) [Example D3]	69.7	6	472	47	333	67
C[C@H](NC1CCC1)c1nc(C(F)(F)F)cc2c(-c3cccc(C4(Cc5nncn5C)COC4)c3)n[nH]c12 [Example F1, N-{(1S)-1-[3-(3-{3-[(4-methyl-4H-1,2,4-triazol-3-yl)methyl]oxetan-3-yl}phenyl)-5-(trifluoromethyl)-1H-pyrazolo[3,4-c]pyridin-7-yl]ethyl}cyclobutanamine]	7.3	1.3	60	8	56	15
C[C@@H](N[C@H]1C[C@H](O)C1)c1nc(C(F)(F)F)cc2c(-c3cccc([C@H](c4nncn4C)C4CCC4)c3)n[nH]c12 (single isomer, unassigned) [Example C92]	50	4.4			525	113
Cn1cnnc1[C@@H](c1cccc(-c2n[nH]c3c(CN[C@H]4CCOC4)nc(C(F)(F)F)cc23)c1)C1CCC1 [Example D1, (3S)—N-{[3-{3-[(R)-cyclobutyl(4-methyl-4H-1,2,4-triazol-3-yl)methyl]phenyl}-5-(trifluoromethyl)-1H-pyrazolo[3,4-c]pyridin-7-yl]methyl}oxolan-3-amine]	210	22.4	1890	276		
Cn1cnnc1CC1(c2cccc(-c3n[nH]c4cnc(C(F)(F)F)cc34)c2)COC1 [Example B1, 3-(3-(3-((4-methyl-4H-1,2,4-triazol-3-yl)methyl)oxetan-3-yl)phenyl)-5-(trifluoromethyl)-1H-pyrazolo[3,4-c]pyridine]	283	62.7	> 9980	> 8710		
CC(c1nc(C(F)(F)F)cc2c(-c3cccc(C4(Cc5nncn5C)COC4)c3)n[nH]c12)N1CCOCC1 (single isomer, unassigned) [Example C23, 3-(3-{3-[(4-methyl-4H-1,2,4-triazol-3-yl)methyl]oxetan-3-yl}phenyl)-7-[(1ξ)-1-(morpholin-4-yl)ethyl]-5-(trifluoromethyl)-1H-pyrazolo[3,4-c]pyridine]	24.8	5.7	800	152		
C[C@@H]1CCCN(Cc2nc(C(F)(F)F)cc3c(-c4cccc(C5(Cc6nncn6C)COC5)c4)n[nH]c23)C1 [Example C29, 7-{[(3R)-3-methylpiperidin-1-yl]methyl}-3-(3-{3-[(4-methyl-4H-1,2,4-triazol-3-yl)methyl]oxetan-3-yl}phenyl)-5-(trifluoromethyl)-1H-pyrazolo[3,4-c]pyridine]	46.3	8.5	1320	204		
C[C@H](c1nc(C(F)(F)F)cc2c(-c3cccc(C4(Cc5nncn5C)COC4)c3)n[nH]c12)N1CCC(F)(F)C1 (single isomer, unassigned) [Example D6]	21	4.6	235	64		
C[C@@H](N[C@@H]1CCC[C@@H]1O)c1nc(C(F)(F)F)cc2c(-c3cccc([C@H](c4nncn4C)C4CCC4)c3)n[nH]c12 (single isomer, unassigned) [Example D16]	24.5	2.5	188	18		
C[C@H](c1nc(C(F)(F)F)cc2c(-c3cccc(C4(Cc5nncn5C)COC4)c3)n[nH]c12)N1CC[C@@H](F)C1 (single isomer, unassigned) [Example D10]	25	6.6	595	102		
CC(c1nc(C(F)(F)F)cc2c(-c3cccc(C4(Cc5nncn5C)COC4)c3)n[nH]c12)N1C[C@@H](F)[C@H](F)C1 (single isomer, unassigned) [Example C25]	33.1	6.5	252	49		
CC(c1nc(C(F)(F)F)cc2c(-c3cccc(C4(Cc5nncn5C)COC4)c3)n[nH]c12)N1CCC[C@H](C)C1 (single isomer, unassigned) [Example C19]	61.3	10.8	439	56		
C[C@@H](NC1CCCC1)c1nc(C(F)(F)F)cc2c(-c3cccc([C@H](c4nncn4C)C4CCC4)c3)n[nH]c12 (single isomer, unassigned) [Example C11]	3.7	0.6	46	5	32	6
C[C@@H](N[C@H]1C[C@@H](F)C1)c1nc(C(F)(F)F)cc2c(-c3cccc([C@H](c4nncn4C)C4CCC4)c3)n[nH]c12 (single isomer, unassigned) [Example C96]	53.5	9.2			574	76
C[C@H]1CCCN(Cc2nc(C(F)(F)F)cc3c(-c4cccc([C@H](c5nncn5C)C5CCC5)c4)n[nH]c23)C1 [Example C7, 3-{3-[(R)-cyclobutyl(4-methyl-4H-1,2,4-triazol-3-yl)methyl]phenyl}-7-{[(3S)-3-methylpiperidin-1-yl]methyl}-5-(trifluoromethyl)-1H-pyrazolo[3,4-c]pyridine]	53.1	3.7	519	58		
CC1CN(Cc2nc(C(F)(F)F)cc3c(-c4cccc(C5(Cc6nncn6C)COC5)c4)n[nH]c23)CCC1(F)F (single isomer, unassigned) [Example C32, 7-{[(3ξ)-4,4-difluoro-3-methylpiperidin-1-yl]methyl}-3-(3-{3-[(4-methyl-4H-1,2,4-triazol-3-yl)methyl]oxetan-3-yl}phenyl)-5-(trifluoromethyl)-1H-pyrazolo[3,4-c]pyridine]	55.6	6.7	1190	83	110	49
C[C@H]1CN([C@@H](C)c2nc(C(F)(F)F)cc3c(-c4cccc(C5(Cc6nncn6C)COC5)c4)n[nH]c23)CCO1 (single isomer, unassigned) [Example D11]	27.2	7.4	512	143		
C[C@@H](N[C@H]1CCOC1)c1nc(C(F)(F)F)cc2c(-c3cccc([C@H](c4nncn4C)C4CCC4)c3)n[nH]c12 (single isomer, unassigned) [Example C3]	52.1	7.8	639	> 159		
C[C@H](N[C@H]1C[C@@H](F)C1)c1nc(C(F)(F)F)cc2c(-c3cccc([C@H](c4nncn4C)C4CCC4)c3)n[nH]c12 (single isomer, unassigned) [Example C95]	28	4.7			230	53
C[C@H](N[C@@H]1CCC(F)(F)C1)c1nc(C(F)(F)F)cc2c(-c3cccc(C4(Cc5nncn5C)COC4)c3)n[nH]c12 (single isomer, unassigned) [Example C17]	24.8	4	196	33		
C[C@H](NC1CC(F)(F)C1)c1nc(C(F)(F)F)cc2c(-c3cccc([C@H](c4nncn4C)C4CCC4)c3)n[nH]c12 (single isomer, unassigned) [Example D90]	147	8.9			313	73
CC(c1nc(C(F)(F)F)cc2c(-c3cccc(C4(Cc5nncn5C)COC4)c3)n[nH]c12)N1CCC[C@H](C)C1 (single isomer, unassigned) [Example C20]	16.9	2.4	78	12	56	15
